Values quoted from earlier work as cited in patent US11185540B2, “Extended release compositions of opioid antagonists and phosphodiesterase 5 inhibitors” (Pardon My Scotch, LLC, priority 2017, dated 2021).

Experiments:
PDE9 = PDE9 (Homo sapiens, UniProt O76083)
[1] = in vivo
PDE5 = PDE5 (Homo sapiens, UniProt O76074)

Sequence of PDE9 (O76083 whole entry): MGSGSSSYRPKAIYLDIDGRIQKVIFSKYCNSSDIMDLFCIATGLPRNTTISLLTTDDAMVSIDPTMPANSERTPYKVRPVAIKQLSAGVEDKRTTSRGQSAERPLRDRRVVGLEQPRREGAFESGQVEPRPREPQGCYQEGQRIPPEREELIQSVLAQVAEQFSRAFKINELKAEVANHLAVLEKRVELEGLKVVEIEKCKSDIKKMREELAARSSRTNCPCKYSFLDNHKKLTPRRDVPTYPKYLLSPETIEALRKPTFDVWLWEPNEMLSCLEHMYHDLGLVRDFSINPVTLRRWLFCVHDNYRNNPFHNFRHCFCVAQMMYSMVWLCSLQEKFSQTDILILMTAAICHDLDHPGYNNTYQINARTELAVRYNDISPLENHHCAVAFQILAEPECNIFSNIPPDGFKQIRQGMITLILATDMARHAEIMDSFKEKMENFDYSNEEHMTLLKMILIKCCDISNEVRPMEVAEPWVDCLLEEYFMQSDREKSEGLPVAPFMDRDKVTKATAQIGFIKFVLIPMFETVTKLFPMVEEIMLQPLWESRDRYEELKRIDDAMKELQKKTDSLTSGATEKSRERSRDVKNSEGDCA

Row | SMILES | Inhibition of PDE9 (PDE9) | Plasma half-life [1] [h] | Inhibition of PDE6 (PDE6) | Inhibition of PDE5 (PDE5)
1 | CCCc1nn(C)c2c(=O)[nH]c(-c3cc(S(=O)(=O)N4CCN(C)CC4)ccc3OCC)nc12 [sildenafil] | inhibit | 5 to 7 | inhibit | 
2 | CN1CC(=O)N2[C@H](c3ccc4c(c3)OCO4)c3[nH]c4ccccc4c3C[C@@H]2C1=O [tadalafil, pyrazino[1′,2′:1,6]pyrido[3,4-b]indole-1,4-dione, 6-(1,3-benzodioxol-5-yl)-2,3,6,7,12,12a-hexahydro-2-methyl-, (6R,12aR)-] |  |  |  | inhibit
3 | CCCc1nc(C)c2c(=O)[nH]c(-c3cc(S(=O)(=O)N4CCN(CC)CC4)ccc3OCC)nn12 [vardenafil] |  | 5 to 7 |  | 
